Data on 7 compounds can be found in patent US20200354426A1 (MEDIMMUNE LIMITED, priority 2016, published 2020).

Numbered stars: 1 amine (or outer) side, 2 acyl side, 3 side chain; on linkers, the order of the positions; unused ones are H or OH. Side chains are listed from the residue outwards. Peptide text beside a SMILES is read from it. * marks the point of attachment. γGlu = O=C(O)[C@H](CCC(=O)[*:2])N[*:1]; Palmitoyl = CCCCCCCCCCCCCCCC(=O)*; Ahx = NCCCCCC(=O)O

As usually defined, the EC50 is the midpoint of the concentration-response curve.

Common to all, as to assay: cAMP activity assay in assay medium (assay 1)
Common to all, as to type: cell-based

For assay [1], the target named is Human GLP1R (Homo sapiens, UniProt P43220). Further details: expressed in transfected cells. As to conditions: assay medium; Table 4; read-out: hGLP1R EC50. An excerpt: (§1) Biological Activity of Peptides in Cell-Based cAMP Activity Assay (Assay 1):
(§2) All sample dilutions were made in duplicate.

Assay [2] concerns the target T1, Human GlucR (Homo sapiens, UniProt P47871).
T1 construct: expressed in transfected cells
As to conditions: assay medium; Table 4; read-out: hGlucR EC50.
Excerpt: as §1, §2

In assay [3] the target is T2, Human GIPr (Homo sapiens, UniProt P48546).
T2 construct: expressed in transfected cells
T2 sequence (P48546 22-466): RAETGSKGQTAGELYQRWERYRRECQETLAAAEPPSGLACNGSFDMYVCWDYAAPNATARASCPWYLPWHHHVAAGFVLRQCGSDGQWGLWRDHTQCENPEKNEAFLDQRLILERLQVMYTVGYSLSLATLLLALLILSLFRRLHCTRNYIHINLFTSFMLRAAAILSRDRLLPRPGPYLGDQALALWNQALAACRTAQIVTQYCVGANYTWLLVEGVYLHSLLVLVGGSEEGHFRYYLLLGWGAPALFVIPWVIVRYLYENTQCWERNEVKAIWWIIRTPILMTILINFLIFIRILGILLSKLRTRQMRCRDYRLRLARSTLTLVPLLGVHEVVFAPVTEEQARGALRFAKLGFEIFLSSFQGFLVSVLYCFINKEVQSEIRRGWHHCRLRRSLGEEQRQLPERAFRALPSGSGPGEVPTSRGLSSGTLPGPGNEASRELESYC
As to conditions: assay medium; Table 4; read-out: hGIPR EC50.
Excerpt: as §1, §2

Chain of Human GLP1R (P43220 24-463): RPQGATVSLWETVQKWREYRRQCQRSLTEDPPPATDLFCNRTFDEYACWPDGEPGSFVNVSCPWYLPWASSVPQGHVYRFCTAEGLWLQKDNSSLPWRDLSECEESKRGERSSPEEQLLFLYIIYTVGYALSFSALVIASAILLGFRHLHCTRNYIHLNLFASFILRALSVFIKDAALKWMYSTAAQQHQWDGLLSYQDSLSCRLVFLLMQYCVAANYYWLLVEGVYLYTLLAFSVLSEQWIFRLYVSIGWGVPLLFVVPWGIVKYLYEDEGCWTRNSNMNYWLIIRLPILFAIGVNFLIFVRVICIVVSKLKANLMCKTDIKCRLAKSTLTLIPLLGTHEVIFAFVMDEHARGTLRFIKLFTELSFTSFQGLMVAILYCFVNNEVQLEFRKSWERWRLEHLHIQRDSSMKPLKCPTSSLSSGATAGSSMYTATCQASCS
T1 sequence (P47871 26-477): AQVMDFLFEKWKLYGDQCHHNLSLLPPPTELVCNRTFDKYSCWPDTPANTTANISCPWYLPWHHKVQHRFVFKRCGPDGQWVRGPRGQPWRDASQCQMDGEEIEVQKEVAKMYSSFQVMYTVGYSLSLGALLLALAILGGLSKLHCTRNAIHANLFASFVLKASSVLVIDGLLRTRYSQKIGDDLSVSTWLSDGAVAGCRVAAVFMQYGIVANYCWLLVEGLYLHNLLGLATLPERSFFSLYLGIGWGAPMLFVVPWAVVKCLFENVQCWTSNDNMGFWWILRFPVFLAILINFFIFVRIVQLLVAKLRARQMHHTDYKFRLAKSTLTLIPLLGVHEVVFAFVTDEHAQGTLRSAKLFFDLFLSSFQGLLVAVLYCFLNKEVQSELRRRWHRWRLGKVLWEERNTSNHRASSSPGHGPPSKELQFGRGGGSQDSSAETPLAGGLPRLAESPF

`CCCCCCCCCCCCCCCC(=O)N[C@@H](CCC(=O)NCCCC[C@H](NC(=O)[C@H](Cc1ccc(O)cc1)NC(=O)[C@H](CCCCN)NC(=O)[C@H](CO)NC(=O)[C@H](Cc1ccc(O)cc1)NC(=O)[C@H](CC(=O)O)NC(=O)[C@H](CO)NC(=O)[C@@H](NC(=O)[C@H](Cc1ccccc1)NC(=O)[C@@H](NC(=O)CNC(=O)[C@H](CCC(N)=O)NC(=O)[C@H](CO)NC(=O)[C@@H](N)Cc1c[nH]cn1)[C@@H](C)O)[C@@H](C)O)C(=O)N[C@@H](CC(=O)O)C(=O)N[C@@H](CO)C(=O)N[C@@H](CCCNC(=N)N)C(=O)N[C@@H](CCCNC(=N)N)C(=O)N[C@@H](C)C(=O)N[C@@H](CCCNC(=N)N)C(=O)N[C@@H](CC(=O)O)C(=O)N[C@@H](Cc1ccccc1)C(=O)N[C@H](C(=O)N[C@@H](CCC(=O)O)C(=O)N[C@@H](Cc1c[nH]c2ccccc12)C(=O)N[C@@H](CC(C)C)C(=O)N[C@@H](CCC(=O)O)C(=O)N[C@@H](C)C(=O)NCC(=O)NCC(N)=O)C(C)C)C(=O)O` [g824] (H-HSQGTFTSDYSKYK([γGlu-Palmitoyl])DSRRARDFVEWLEAGG-NH2; N-terminus assumed): the EC50 in assay [1] was determined as 0.0471 nM; in assay [2], 0.00105 nM; in assay [3], 57.4 nM.
With `CCCCCCCCCCCCCCCC(=O)NCCCCCC(=O)NCCCC[C@H](NC(=O)[C@H](CO)NC(=O)[C@H](CC(=O)O)NC(=O)[C@H](CC(C)C)NC(=O)[C@H](Cc1ccc(O)cc1)NC(=O)[C@H](CCC(=O)O)NC(=O)[C@H](CO)NC(=O)[C@H](Cc1ccc(O)cc1)NC(=O)[C@H](CC(=O)O)NC(=O)[C@H](CO)NC(=O)[C@@H](NC(=O)[C@H](Cc1ccccc1)NC(=O)[C@@H](NC(=O)CNC(=O)[C@H](CCC(N)=O)NC(=O)[C@H](CO)NC(=O)[C@@H](N)Cc1c[nH]cn1)[C@@H](C)O)[C@@H](C)O)C(=O)N[C@@H](CCCNC(=N)N)C(=O)N[C@@H](C)C(=O)N[C@@H](CCCNC(=N)N)C(=O)N[C@@H](CC(=O)O)C(=O)N[C@@H](Cc1ccccc1)C(=O)N[C@H](C(=O)N[C@@H](C)C(=O)N[C@@H](Cc1c[nH]c2ccccc12)C(=O)N[C@@H](CC(C)C)C(=O)N[C@@H](CCC(=O)O)C(=O)N[C@@H](CCCNC(=N)N)C(=O)NCC(=O)NCC(=O)O)C(C)C` [g826] (H-HSQGTFTSDYSEYLDSK([Ahx-Palmitoyl])RARDFVAWLERGG-OH; N-terminus assumed), the figures for the EC50 in assay [1], in assay [2] and in assay [3] were 0.0293 nM, 0.00423 nM and 58 nM, respectively.
The matching figures for `CCCCCCCCCCCCCCCC(=O)N[C@@H](CCC(=O)NCCCC[C@H](NC(=O)[C@H](CO)NC(=O)[C@H](CC(=O)O)NC(=O)[C@H](CC(C)C)NC(=O)[C@H](Cc1ccc(O)cc1)NC(=O)[C@H](CCC(=O)O)NC(=O)[C@H](CO)NC(=O)[C@H](Cc1ccc(O)cc1)NC(=O)[C@H](CC(=O)O)NC(=O)[C@H](CO)NC(=O)[C@@H](NC(=O)[C@H](Cc1ccccc1)NC(=O)[C@@H](NC(=O)CNC(=O)[C@H](CCC(N)=O)NC(=O)[C@H](CO)NC(=O)[C@@H](N)Cc1c[nH]cn1)[C@@H](C)O)[C@@H](C)O)C(=O)N[C@@H](CCCNC(=N)N)C(=O)N[C@@H](C)C(=O)N[C@@H](CCCNC(=N)N)C(=O)N[C@@H](CC(=O)O)C(=O)N[C@@H](Cc1ccccc1)C(=O)N[C@H](C(=O)N[C@@H](CCC(=O)O)C(=O)N[C@@H](Cc1c[nH]c2ccccc12)C(=O)N[C@@H](CC(C)C)C(=O)N[C@H](C(=O)N[C@@H](C)C(=O)NCC(=O)NCC(N)=O)C(C)C)C(C)C)C(=O)O` [g835] (H-HSQGTFTSDYSEYLDSK([γGlu-Palmitoyl])RARDFVEWLVAGG-NH2; N-terminus assumed): 0.191 nM, 0.424 nM and 97.2 nM.
Taken in the same sequence, the figures for `CCCCCCCCCCCCCCCC(=O)N[C@@H](CCC(=O)NCCCC[C@H](NC(=O)[C@H](Cc1ccc(O)cc1)NC(=O)[C@H](CCCCN)NC(=O)[C@H](CO)NC(=O)[C@H](Cc1ccc(O)cc1)NC(=O)[C@H](CC(=O)O)NC(=O)[C@H](CO)NC(=O)[C@@H](NC(=O)[C@H](Cc1ccccc1)NC(=O)[C@@H](NC(=O)CNC(=O)[C@H](CCC(N)=O)NC(=O)[C@H](CO)NC(=O)[C@@H](N)Cc1c[nH]cn1)[C@@H](C)O)[C@@H](C)O)C(=O)N[C@@H](CC(=O)O)C(=O)N[C@@H](CO)C(=O)N[C@@H](CCC(=O)O)C(=O)N[C@@H](CCCNC(=N)N)C(=O)N[C@@H](C)C(=O)N[C@@H](CCCNC(=N)N)C(=O)N[C@@H](CC(=O)O)C(=O)N[C@@H](Cc1ccccc1)C(=O)N[C@H](C(=O)N[C@@H](CCC(=O)O)C(=O)N[C@@H](Cc1c[nH]c2ccccc12)C(=O)N[C@@H](CC(C)C)C(=O)N[C@@H](CCC(=O)O)C(=O)N[C@@H](C)C(=O)NCC(=O)NCC(N)=O)C(C)C)C(=O)O` [g836] (H-HSQGTFTSDYSKYK([γGlu-Palmitoyl])DSERARDFVEWLEAGG-NH2; N-terminus assumed) were 0.124 nM, 0.0155 nM and 100 nM.
For `CCCCCCCCCCCCCCCC(=O)N[C@@H](CCC(=O)NCCCC[C@H](NC(=O)[C@H](CO)NC(=O)[C@H](CC(=O)O)NC(=O)[C@H](CC(C)C)NC(=O)[C@H](Cc1ccc(O)cc1)NC(=O)[C@H](CCC(=O)O)NC(=O)[C@H](CO)NC(=O)[C@H](Cc1ccc(O)cc1)NC(=O)[C@H](CC(=O)O)NC(=O)[C@H](CO)NC(=O)[C@@H](NC(=O)[C@H](Cc1ccccc1)NC(=O)[C@@H](NC(=O)CNC(=O)[C@H](CCC(N)=O)NC(=O)[C@H](CO)NC(=O)[C@@H](N)Cc1c[nH]cn1)[C@@H](C)O)[C@@H](C)O)C(=O)N[C@@H](CCCNC(=N)N)C(=O)N[C@@H](C)C(=O)N[C@@H](CCCNC(=N)N)C(=O)N[C@@H](CC(=O)O)C(=O)N[C@@H](Cc1ccccc1)C(=O)N[C@H](C(=O)N[C@@H](C)C(=O)N[C@@H](Cc1c[nH]c2ccccc12)C(=O)N[C@@H](CC(C)C)C(=O)N[C@@H](CCC(=O)O)C(=O)N[C@@H](C)C(=O)NCC(=O)NCC(N)=O)C(C)C)C(=O)O` [g837] (H-HSQGTFTSDYSEYLDSK([γGlu-Palmitoyl])RARDFVAWLEAGG-NH2; N-terminus assumed), the EC50 was 0.467 nM in assay [1], 0.213 nM in assay [2] and 114 nM in assay [3].
`CCCCCCCCCCCCCCCC(=O)NCCCCCC(=O)NCCCC[C@H](NC(=O)[C@H](CO)NC(=O)[C@H](CC(=O)O)NC(=O)[C@H](CC(C)C)NC(=O)[C@H](Cc1ccc(O)cc1)NC(=O)[C@H](CCC(=O)O)NC(=O)[C@H](CO)NC(=O)[C@H](Cc1ccc(O)cc1)NC(=O)[C@H](CC(=O)O)NC(=O)[C@H](CO)NC(=O)[C@@H](NC(=O)[C@H](Cc1ccccc1)NC(=O)[C@@H](NC(=O)CNC(=O)[C@H](CCC(N)=O)NC(=O)[C@H](CO)NC(=O)[C@@H](N)Cc1c[nH]cn1)[C@@H](C)O)[C@@H](C)O)C(=O)N[C@@H](CCCNC(=N)N)C(=O)N[C@@H](C)C(=O)N[C@@H](CCCNC(=N)N)C(=O)N[C@@H](CC(=O)O)C(=O)N[C@@H](Cc1ccccc1)C(=O)N[C@H](C(=O)N[C@@H](C)C(=O)N[C@@H](Cc1c[nH]c2ccccc12)C(=O)N[C@@H](CC(C)C)C(=O)N[C@@H](CCC(=O)O)C(=O)N[C@@H](C)C(=O)NCC(=O)NCC(N)=O)C(C)C` [g838] (H-HSQGTFTSDYSEYLDSK([Ahx-Palmitoyl])RARDFVAWLEAGG-NH2; N-terminus assumed): the EC50 in assay [1] was determined as 0.0237 nM; in assay [2], 0.00568 nM; in assay [3], 84.3 nM.
Taken in the same sequence, the figures for `CCCCCCCCCCCCCCCC(=O)N[C@@H](CCC(=O)NCCCC[C@H](NC(=O)[C@H](CCCNC(=N)N)NC(=O)[C@H](CO)NC(=O)[C@H](Cc1ccc(O)cc1)NC(=O)[C@H](CC(=O)O)NC(=O)[C@H](CO)NC(=O)[C@@H](NC(=O)[C@H](Cc1ccccc1)NC(=O)[C@@H](NC(=O)CNC(=O)[C@H](CCC(N)=O)NC(=O)[C@H](CO)NC(=O)[C@@H](N)Cc1c[nH]cn1)[C@@H](C)O)[C@@H](C)O)C(=O)N[C@@H](CC(C)C)C(=O)N[C@@H](CC(=O)O)C(=O)N[C@@H](CO)C(=O)N[C@@H](CCC(=O)O)C(=O)N[C@@H](CCCNC(=N)N)C(=O)N[C@@H](C)C(=O)N[C@@H](CCCNC(=N)N)C(=O)N[C@@H](CC(=O)O)C(=O)N[C@@H](Cc1ccccc1)C(=O)N[C@H](C(=O)N[C@@H](C)C(=O)N[C@@H](Cc1c[nH]c2ccccc12)C(=O)N[C@@H](CC(C)C)C(=O)N[C@H](C(=O)N[C@@H](C)C(=O)NCC(=O)NCC(=O)O)C(C)C)C(C)C)C(=O)O` [g842] (H-HSQGTFTSDYSRK([γGlu-Palmitoyl])LDSERARDFVAWLVAGG-OH; N-terminus assumed) were 0.0512 nM, 0.00831 nM and 88.3 nM.
